Experimental data: the supplement of paper PMC4862054

Experiments:
Conditions in all cases: incubation time: 72 h
CAL-120 [1] = assay: normalised viability (% of control), CellTiter-Blue; higher = more viable cells (100 = DMSO, 0 = benzethonium chloride kill control)
Procedure: (§1)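 DSRT, CellTiter-Blue viability, 72 h incubation. Signal is normalised to DMSO and benzethonium chloride controls. Value is the normalised response at dose 1.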

MFM-223 [2] = assay: as above
Procedure: as §1

SK-BR-3 [3] = assay: as above
Procedure: as §1

BT-474 [4] = assay: as above
Procedure: as §1

CAL-51 [5] = assay: as above
Procedure: as §1

DU-4475 [6] = assay: as above
Procedure: as §1

MDA-MB-468 [7] = assay: as above
Procedure: as §1

MDA-MB-453 [8] = assay: as above
Procedure: as §1

HCC1937 [9] = assay: as above
Procedure: as §1

HCC1599 [10] = assay: as above
Procedure: as §1

CAL-85-1 [11] = assay: as above
Procedure: as §1

HCC1143 [12] = assay: as above
Procedure: as §1

BT-549 [13] = assay: as above
Procedure: as §1

MDA-MB-231 [14] = assay: as above
Procedure: as §1

CAL-148 [15] = assay: as above
Procedure: as §1

HDQ-P1 [16] = assay: as above
Procedure: as §1

MDA-MB-436 [17] = assay: as above
Procedure: as §1

Hs578T [18] = assay: as above
Procedure: as §1

CAL-120 [19] = assay: normalised response (% of control), CellTiter-Glo; higher = more viable cells (100 = DMSO, 0 = benzethonium chloride kill control)
Summary of the method: (§2)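 Breast cancer cell lines were exposed for 72 h in 384-well plates to compound at 5 concentrations, 10-fold apart, covering a 10,000-fold range fixed for each compound. Plates were read for CellTox Green fluorescence and CellTiter-Glo luminescence and normalised to 0.1 % DMSO (100) and a positive kill control (0). Each value is the normalised signal at one concentration of the series.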

MFM-223 [20] = assay: as above
Summary of the method: as §2

SK-BR-3 [21] = assay: as above
Summary of the method: as §2

BT-474 [22] = assay: as above
Summary of the method: as §2

CAL-51 [23] = assay: as above
Summary of the method: as §2

DU-4475 [24] = assay: as above
Summary of the method: as §2

MDA-MB-468 [25] = assay: as above
Summary of the method: as §2

MDA-MB-453 [26] = assay: as above
Summary of the method: as §2

HCC1937 [27] = assay: as above
Summary of the method: as §2

HCC1599 [28] = assay: as above
Summary of the method: as §2

CAL-85-1 [29] = assay: as above
Summary of the method: as §2

MCF-10A = assay: as above
Summary of the method: as §2

HCC1143 [30] = assay: as above
Summary of the method: as §2

BT-549 [31] = assay: as above
Summary of the method: as §2

MDA-MB-231 [32] = assay: as above
Summary of the method: as §2

CAL-148 [33] = assay: as above
Summary of the method: as §2

HDQ-P1 [34] = assay: as above
Summary of the method: as §2

MDA-MB-436 [35] = assay: as above
Summary of the method: as §2

Hs578T [36] = assay: as above
Summary of the method: as §2

Structure (SMILES) | normalised viability (CAL-120 [1]) [%] | normalised viability (MFM-223 [2]) [%] | normalised viability (SK-BR-3 [3]) [%] | normalised viability (BT-474 [4]) [%] | normalised viability (CAL-51 [5]) [%] | normalised viability (DU-4475 [6]) [%] | normalised viability (MDA-MB-468 [7]) [%] | normalised viability (MDA-MB-453 [8]) [%] | normalised viability (HCC1937 [9]) [%] | normalised viability (HCC1599 [10]) [%] | normalised viability (CAL-85-1 [11]) [%] | normalised viability (HCC1143 [12]) [%] | normalised viability (BT-549 [13]) [%] | normalised viability (MDA-MB-231 [14]) [%] | normalised viability (CAL-148 [15]) [%] | normalised viability (HDQ-P1 [16]) [%] | normalised viability (MDA-MB-436 [17]) [%] | normalised viability (Hs578T [18]) [%] | normalised response (CAL-120 [19]) [%] | normalised response (MFM-223 [20]) [%] | normalised response (SK-BR-3 [21]) [%] | normalised response (BT-474 [22]) [%] | normalised response (CAL-51 [23]) [%] | normalised response (DU-4475 [24]) [%] | normalised response (MDA-MB-468 [25]) [%] | normalised response (MDA-MB-453 [26]) [%] | normalised response (HCC1937 [27]) [%] | normalised response (HCC1599 [28]) [%] | normalised response (CAL-85-1 [29]) [%] | normalised response (MCF-10A) [%] | normalised response (HCC1143 [30]) [%] | normalised response (BT-549 [31]) [%] | normalised response (MDA-MB-231 [32]) [%] | normalised response (CAL-148 [33]) [%] | normalised response (HDQ-P1 [34]) [%] | normalised response (MDA-MB-436 [35]) [%] | normalised response (Hs578T [36]) [%]
CN(C)CCOc1ccc(/C(=C(/CCCl)c2ccccc2)c2ccccc2)cc1 [Toremifene] (1 nM) | 83.5 | 104 | 102 | 114 | 104 | 107 | 113 | 112 | 142 | 105 | 90.9 | 97.7 | 113 | 101 | 108 | 107 | 126 | 106 | 103 | 103 | 111 | 102 | 114 | 103 | 106 | 119 | 96.2 | 106 | 98.4 | 107 | 98.5 | 104 | 106 | 104 | 98.6 | 98.7 | 110
C=C1C[C@@H]2[C@H](CC[C@]3(C)C(=O)CC[C@@H]23)[C@@]2(C)C=CC(=O)C=C12 [Exemestane] (1 nM) | 86.5 | 88.7 | 91.5 | 81.5 | 95.2 | 90.9 | 117 | 99.2 | 102 | 84.5 | 88.2 | 85.9 | 114 | 93.5 | 89.2 | 100 | 95.2 | 112 | 101 | 108 | 107 | 97.6 | 88.6 | 106 | 101 | 108 | 93.6 | 112 | 97.2 | 112 | 102 | 91.6 | 105 | 98.6 | 101 | 134 | 106
CNC(=O)c1cc(Oc2ccc(NC(=O)Nc3ccc(Cl)c(C(F)(F)F)c3)c(F)c2)ccn1 [Regorafenib] (1 nM) | 89.7 | 106 | 100 | 91.4 | 96 | 121 | 108 | 105 | 83.5 | 131 | 88.9 | 100 | 102 | 101 | 103 | 88.5 | 104 | 84.9 | 94.1 | 97.2 | 112 | 95.7 | 90.1 | 102 | 114 | 115 | 96.4 | 110 | 104 | 104 | 98.5 | 99.9 | 100 | 94.2 | 100 | 99.9 | 99.5
CC(C)C[C@@H](C(=O)N[C@H](C(=O)OC1CCCC1)c1ccccc1)[C@H](O)C(=O)NO [Tosedostat] (1 nM) | 100 | 94.3 | 108 | 98.7 | 112 | 93.3 | 111 | 108 | 86.9 | 106 | 101 | 102 | 92.1 | 114 | 109 | 130 | 100 | 118 | 103 | 105 | 109 | 100 | 108 | 103 | 102 | 110 | 97.4 | 106 | 103 | 98.7 | 100 | 100 | 107 | 104 | 100 | 103 | 94.4
